This passage reports TGI results from PubChem BioAssay (NCI).

Test systems include TK-10 renal; OVCAR-3 ovarian; ACHN renal; A498 renal; NCI-H23 lung; EKVX NSCLC; T-47D breast; SK-MEL-28 melanoma; SN12C renal; LOX IMVI melanoma; HCT-15 colon; U251 CNS; BT-549 breast; HL-60(TB) leukemia; SNB-19 CNS; MCF7 breast; HT29 colon; COLO 205 colon; NCI-H522 lung; A549 NSCLC.
Holding throughout (experiment): growth of human tumour cells (NCI), 48 h

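Five concentrations, 48 hours, 96-well plates. The concentration for full growth arrest is given as TGI.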 Bounds are passed on as bounds.

As for `O=C1[C@@H]2[C@@H](c3ccccc3)[C@]2(Cl)C(=O)[C@H]2[C@H](c3ccccc3)[C@@]12Cl`, the TGI in the assay with TK-10 renal, in the assay on OVCAR-3 ovarian, with ACHN renal, with A498 renal, in the assay on NCI-H23 lung and in the assay with EKVX NSCLC was over 100 µM in each case. In addition, the TGI with T-47D breast, in the assay with SK-MEL-28 melanoma, with SN12C renal, in the assay on LOX IMVI melanoma, in the assay on HCT-15 colon and with U251 CNS was over 100 µM in each case. The TGI in the assay on BT-549 breast, in the assay on HL-60(TB) leukemia, with SNB-19 CNS, with MCF7 breast, in the assay with HT29 colon and in the assay with COLO 205 colon was over 100 µM each time. Besides, the TGI in the assay on NCI-H522 lung and in the assay on A549 NSCLC was over 100 µM each time.
In the case of `CSc1c(C#N)c(N)nc2c(N=Nc3ccc(Cl)cc3)c(N)nn12`, the TGI in the assay with TK-10 renal is 26.8 µM; in the assay with OVCAR-3 ovarian, 3.38 µM; in the assay on ACHN renal, 12.4 µM; with A498 renal, over 100 µM; in the assay on NCI-H23 lung, 7.25 µM; with EKVX NSCLC, 11.4 µM. In addition, the TGI in the assay on T-47D breast was determined as 3.86 µM; in the assay with SK-MEL-28 melanoma, 7.57 µM; with SN12C renal, 8.1 µM; in the assay on LOX IMVI melanoma, 2.87 µM; in the assay with HCT-15 colon, 5.5 µM; with U251 CNS, 11 µM. Also, the TGI amounted to 9.97 µM in the assay on BT-549 breast; 5.23 µM in the assay on HL-60(TB) leukemia; 40.7 µM in the assay on SNB-19 CNS; 4.71 µM with MCF7 breast; 8.38 µM in the assay on HT29 colon; 30.3 µM with COLO 205 colon. In addition, the TGI in the assay with NCI-H522 lung was 22.5 µM; in the assay on A549 NSCLC, over 73.8 µM.
Regarding `CN(C)c1ccccc1CN1CCCN(Cc2ccccc2N(C)C)C1c1ccncc1`, the TGI with TK-10 renal came out at 28.4 µM; in the assay on OVCAR-3 ovarian, 28 µM; in the assay with ACHN renal, 99.2 µM; in the assay with A498 renal, 24.8 µM; in the assay on NCI-H23 lung it was 43 µM; in the assay with EKVX NSCLC, 38 µM. The TGI was 38.7 µM with T-47D breast; 23.7 µM in the assay on SK-MEL-28 melanoma; 62.2 µM in the assay on SN12C renal; 28.4 µM in the assay on LOX IMVI melanoma; 51.7 µM with HCT-15 colon; over 100 µM with U251 CNS. In addition, the TGI with BT-549 breast was 34.6 µM; with HL-60(TB) leukemia, 32.4 µM; in the assay with SNB-19 CNS, 33 µM; in the assay on MCF7 breast it was 29.6 µM; with HT29 colon it was 26.5 µM; in the assay with COLO 205 colon, 30.3 µM. The values for the TGI in the assay with NCI-H522 lung and in the assay on A549 NSCLC were 32.5 µM and 40.7 µM, respectively.
With `Cn1c2ccccc2c2c(=O)[nH]c(=O)[nH]c21`, the TGI with TK-10 renal, with OVCAR-3 ovarian, with ACHN renal, with A498 renal, in the assay with NCI-H23 lung and in the assay on EKVX NSCLC was over 100 µM throughout. Further, the TGI with T-47D breast, in the assay on SK-MEL-28 melanoma, in the assay on SN12C renal, in the assay on LOX IMVI melanoma, with HCT-15 colon and in the assay on U251 CNS was over 100 µM each time. The TGI in the assay on BT-549 breast, with HL-60(TB) leukemia, with SNB-19 CNS, in the assay on MCF7 breast, in the assay with HT29 colon and with COLO 205 colon was over 100 µM throughout. Also, the TGI in the assay on NCI-H522 lung and in the assay on A549 NSCLC was over 100 µM each time.
With `N=c1c2c(-c3ccccc3)c[nH]c2ncn1N`, the TGI in the assay on TK-10 renal, with OVCAR-3 ovarian, in the assay on ACHN renal, with A498 renal, in the assay with NCI-H23 lung and in the assay with EKVX NSCLC was over 100 µM throughout. For the same molecule, the TGI with T-47D breast, in the assay on SK-MEL-28 melanoma, in the assay on SN12C renal, in the assay with LOX IMVI melanoma, in the assay with HCT-15 colon and in the assay on U251 CNS was over 100 µM each time. The TGI in the assay with BT-549 breast, with HL-60(TB) leukemia, in the assay on SNB-19 CNS, in the assay on MCF7 breast, with HT29 colon and in the assay on COLO 205 colon was over 100 µM throughout. Also, the TGI with NCI-H522 lung and in the assay on A549 NSCLC was over 100 µM in each case.
With `Cc1cc(C)c2c(n1)S(=O)(=O)N(CCCN1CCN(c3cccc(C(F)(F)F)c3)CC1)c1c-2nn(C)c1C`, the TGI in the assay with TK-10 renal, with OVCAR-3 ovarian, in the assay on ACHN renal, in the assay with A498 renal, in the assay on NCI-H23 lung and in the assay with EKVX NSCLC was over 100 µM each time. In addition, the TGI with T-47D breast, with SK-MEL-28 melanoma, in the assay on SN12C renal, in the assay on LOX IMVI melanoma, with HCT-15 colon and in the assay on U251 CNS was over 100 µM each time. The TGI in the assay on BT-549 breast is over 100 µM; in the assay on HL-60(TB) leukemia it was over 100 µM; with SNB-19 CNS, over 100 µM; in the assay on MCF7 breast, over 100 µM; in the assay on HT29 colon it was 52 µM; in the assay with COLO 205 colon, over 100 µM. The TGI in the assay with NCI-H522 lung and in the assay on A549 NSCLC was over 100 µM throughout.
With `COC(=O)c1ccc(C)cc1/C=C1\Cc2ccc(C)cc2C1=O`, the TGI with TK-10 renal was 42.4 µM; with OVCAR-3 ovarian, 31.2 µM; with ACHN renal it was over 100 µM; with A498 renal it was 47.9 µM; with NCI-H23 lung it was 99.4 µM; in the assay with EKVX NSCLC it was 88.4 µM. The TGI is 69.6 µM in the assay on T-47D breast; 34.6 µM in the assay with SK-MEL-28 melanoma; 32.9 µM in the assay on SN12C renal; 25.6 µM in the assay on LOX IMVI melanoma; 43.1 µM in the assay with HCT-15 colon; 32.3 µM in the assay with U251 CNS. Besides, the TGI was 30 µM in the assay on BT-549 breast; 18.2 µM with HL-60(TB) leukemia; 68.7 µM with SNB-19 CNS; 40.6 µM in the assay with MCF7 breast; 40.9 µM in the assay on HT29 colon; 25.1 µM in the assay on COLO 205 colon. In addition, the TGI in the assay with NCI-H522 lung turned out to be 45 µM; in the assay with A549 NSCLC, 98.4 µM.
